The test system of assay [1] is IL-6. In words: Serum IL-6 (ELISA) in TAA-treated Quinster rats given ammonium chloride per os. It is filed as in vivo. Particulars: 12 hours post the third TAA injection, mean ± SD. As to the method: (§1) Thioacetamid (TAA) was given to adult male Quinster rats with a course of 400 mg TAA/kg B.W. every 24 hours and for 3 consecutive days. […] The animals were sacrificed in 6 and 12 hours after the 3rd treatment with TTA. TNF-α and IL-6 levels were measured in serum (ELISA test) after 12 hours post the third TAA injection and the results are reported in the following table.
In general terms: An ELISA detects its analyte on a solid surface through an enzyme-linked reagent.

The subject of assay [2] is TNF-α. The experiment in a line: Serum TNF-α (ELISA) in TAA-treated Quinster rats given ammonium chloride per os. It is filed as in vivo. Particulars: 12 hours post the third TAA injection, mean ± SD. How it is done: as §1
Assay [3] deals with hyaluronic acid. The experiment in a line: Hyaluronic acid levels in treated Quinster rats. The format is in vivo. From the text: The levels of hyaluronic acid in patients with high-grade hepatic damage are usually high, but they appeared decreased in the treated Quinster rats. Furthermore, additional biochemical factors appeared improved.
The subject of assay [4] is chronic hepatitis B. The experiment in a line: Clinical treatment of a patient with chronic hepatitis B, viral charge. It is filed as in vivo, human. Particulars: 3 gr/day by the protocol, before treatment 1.65 × 10^6 IU/ml. As to the method: (§2) The above protocol of administration can be repeated several times until the completion of the treatment as judged by the clinician. For example, 21 cycles of treatment are performed, which complies with the natural time of regeneration of liver after a partial hepatectomy in patients. Therefore, the duration of the treatment can be from 1 to 6 months or from 3 to 4 months for patients with partial necrosis.
(§3) Patients were treated according to the above described protocol, using a dose of 3 gr/day.

Assay [5] deals with hepatitis C. The experiment in a line: Clinical treatment of a patient with hepatitis C, viral charge. It is filed as in vivo, human. Particulars: Patient B, 3 gr/day by the protocol, before treatment 1.65 × 10^8 IU/ml. How it is done: as §2, §3
Assay [6] relates to Hepatitis Virus. The experiment in a line: Use of NH4Cl in treating hepatitis virus, reduction of viral charge across patients. Particulars: in humans; Patients A and B, 3 months of treatment, 3 gr/day. It is filed as in vivo. How it is done:
as §3

Molecules are shown by their SMILES.

Consider `Cl.N` [NH4Cl, ammonium chloride], for which the IL-6 worked out at 69 ± 12 pg/dL in assay [1] (Group II, at least 8 animals per group, Control 11 ± 5, Group I 58 ± 9); 92 ± 8 pg/dL in assay [1] (Group III); 73 ± 12 pg/dL in assay [1] (Group IV). Further, the TNF-α was found to be 52 ± 17 pg/dL in assay [2] (Group II, Control 21 ± 4, Group I 65 ± 15); 32 ± 6 pg/dL in assay [2] (Group III); 45 ± 9 pg/dL in assay [2] (Group IV). Further, the “levels of hyaluronic acid” value in assay [3] is “decreased”. The “Viral charge after 3 months of treatment” value in assay [4] is on record as 1.65 × 10^3 IU/ml; in assay [5], 1.65 × 10^6 IU/ml. Also, the “factor of reduction of the viral charge” value in assay [6] is on record as “at least 10^2”.

Values taken from patent US8840934B2 (Rainbow Pharmaceutical SA, priority 2009, dated 2014).
